Experimental data from paper PMC3944389, “Differential Neuroprotective Effects of 5′-Deoxy-5′-Methylthioadenosine” (PLoS ONE, 2014).

Experiments:
[1] = system: rat mixed cultures of neurons and astrocytes; test: Oxygen-glucose deprivation (OGD) with iodoacetate, LDH release; type: cell-based
Protocol: Finally, to prepare neuron-astrocyte co-cultures, neurons were resuspended in B27 Neurobasal medium plus 10% of foetal bovine serum (FBS) and then seeded onto a monolayer of astrocytes in 24-well plates at a density of 1–2×10^5 cells per well, the astrocytes having been prepared beforehand, as described elsewhere. One day later, the medium was replaced with B27-Neurobasal plus 10% FBS medium, and the cells were maintained at 37°C in 5% CO2. The cultures were used 8–9 days after plating. Neurons and astrocytes were identified with antibodies against microtubule-associated protein-2 and GFAP, respectively.
Ischemic damage was induced by incubating cell cultures for 1 h in a hyperbaric chamber in a nitrogen-saturated buffer containing: 130 mM NaCl, 5.4 mM KCl, 0.1323 mM CaCl2, 0.26 mM NaHCO3, 0.8 mM MgCl2, 1.18 mM NaH2PO4, 10 mM sucrose (OGD plus sucrose) and iodoacetate (IAA, 20 or 50 µM). IAA is a glycolytic blocker typically used in OGD experiments to simulate ischemic conditions. After the insult, the cells were incubated under normoxic conditions for an additional 24 h in the presence of glucose but in the absence of IAA. Distinct reagents were added during ischemia to evaluate their neuroprotective activity by assessing cell viability and cell death in the cultures.
The cell status was assessed by measuring the release of lactate dehydrogenase (LDH) from dead cells. LDH was measured spectrophotometrically at 490 nm on a 96-well plate reader using the Cytotox 96 Kit according to the manufacturer's instructions (Promega). The LDH release was defined by the ratio of LDH released to the total LDH present in the cell at the beginning of the treatment.

[2] = system: Wistar rats, global brain ischemia; test: Transient forebrain (global) ischemia (4VO), Fluoro-Jade C staining of CA1; type: in vivo, rat; details: 30 mg/kg i.p. from 30 min after onset of ischemia, 7 days reperfusion; untreated 180±10
Protocol: Male Wistar rats (270-300 g; Harlan) were subjected to transient focal ischemia for 90 min by producing right middle cerebral artery occlusion (MCAO) as described previously, followed by reperfusion for 3 days and MTA treatment (30 mg/kg, intraperitoneally –i.p.- twice daily) starting 30 min after the onset of ischemia (n = 5 in each experimental group). Cerebral blood flow was monitored transcranially with a laser Doppler flowmeter (Perimed) and the infarct volume was assessed by 2,3,5-triphenyltetrazolium chloride (TTC) staining. Transient forebrain ischemia was induced as described elsewhere, by occluding the vertebral and common carotid arteries (4VO) for 10 min, followed by reperfusion for 7 days and MTA treatment (as above) starting 30 min after the onset of ischemia (n = 5 in vehicle group; n = 6 in the […]). The effectiveness of the treatment was assessed by using fluoro-Jade C staining to measure the levels of degenerated neurons in the CA1 region of the hippocampal formation.
Fluoro-Jade C (Chemicon, Millipore) was used to visualize dying neurons in 10 µm frozen coronal sections pretreated for 15 min with 0.06% KMnO4. […] Cells were counted in the right and left hemispheres of each stained section, examining four sections from each experiment.

[3] = system: rat pure primary neuronal cultures; test: NMDA-induced caspase 3 activation in pure primary neuronal cultures; type: cell-based; details: 300 µM NMDA
Protocol: Primary cultures of rat brain cortical neurons were prepared essentially as described previously. The fronto-lateral cortical lobes were dissected out of Sprague-Dawley embryonic day 17 fetuses and they were dissociated mechanically in Hanks' balanced solution. After centrifugation at 800×g for 5 min, the cells were resuspended in serum-free Neurobasal medium (GIBCO) supplemented with B27 (GIBCO) containing 2 mM L-glutamine, penicillin (20 units/ml) and streptomycin (5 µg/ml), and they were plated onto poly-L-lysine-coated 24-well culture plates or on poly-L-lysine-coated 6-well culture plates. […]
To assay N-methyl–D-aspartate (NMDA) excitotoxicity, primary cultures were seeded in 24-well plates at 15×10^4 cells/well, cultured for 7 days in vitro, and treated for different times with the vehicle alone (dimethyl sulfoxide (DMSO) 1%), NMDA (300 µM), NMDA (300 µM) + MTA (250 µM) or NMDA (300 µM) + MK-801, a NMDA receptor antagonist (10 µM). […] Caspase 3 activity was measured in these lysates one hour after the NMDA addition.
Cortical neurons, or mixed cortical neurons and glia, were seeded in poly-L-lysine-coated 6-well culture plates during 7 days in vitro before start the set of experiments. […] The extracts were then centrifuged at 5,000×g for 10 min at 4°C and the protein content was determined by the BCA protein assay. […]

## 5′-deoxy-5′-methylthioadenosine [MTA]
[1]; IAA 20 and 50 µM, MTA 10 µM or 100 µM, APV 100 µM
  protection against OGD (cell death, LDH release): significant
[1]; supramaximal dose of MTA, 1 mM
  protection against OGD (cell death, LDH release): neither protective nor did it lead to greater damage than OGD itself
[2]
  Fluoro Jade C stained cells in the hippocampal CA1 region: 110±20 cells/mm
[3]; co-treatment with MTA (100, 250 and 500 µM), 1 h
  survival of neurons exposed to NMDA (caspase 3 activity): not enhanced
[3]; pre-treatment 15 min before NMDA, MTA 100, 250 and 500 µM
  caspase 3 activity induced by NMDA: decreased significantly
